In US9777002B2, “Inhibitors of the renal outer medullary potassium channel” (Merck Sharp & Dohme Corp., priority 2012, dated 2017) one finds IC50 data, which are given here for 21 molecules.

Molecules are shown by their SMILES.

This test addresses T1, hROMK (hKir1.1) (Homo sapiens, UniProt P48048).
T1 construct: expressed in transfected cells
T1 sequence (P48048 1-391): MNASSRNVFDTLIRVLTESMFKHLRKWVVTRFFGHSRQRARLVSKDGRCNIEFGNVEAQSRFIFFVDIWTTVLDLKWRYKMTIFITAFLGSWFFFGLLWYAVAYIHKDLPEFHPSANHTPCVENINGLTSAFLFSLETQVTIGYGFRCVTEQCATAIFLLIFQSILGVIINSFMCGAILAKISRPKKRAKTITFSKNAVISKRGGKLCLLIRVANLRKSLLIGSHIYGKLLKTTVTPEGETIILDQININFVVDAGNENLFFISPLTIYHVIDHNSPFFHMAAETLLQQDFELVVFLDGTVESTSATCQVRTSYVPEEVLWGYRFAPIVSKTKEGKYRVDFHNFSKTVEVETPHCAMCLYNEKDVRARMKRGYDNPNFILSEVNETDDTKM
Put plainly: Thallium Flux Assay. The class given is cell-based. The note with it: HEK293 cells stably expressing hROMK (hKir1.1). The protocol: Cell Culture Conditions—HEK293 cells stably expressing hROMK (hKir1.1) were grown at 37° C. in a 10% CO2 humidified incubator in complete growth media: Dulbecco's Modified Eagle Medium supplemented with non-essential amino acids, Penicillin/Streptomycin/Glutamine, G418 and FBS. At >80% confluency, aspirate the media from the flask and rinse with 10 mL Calcium/Magnesium-free PBS. Add 5 mL of 1× trypsin (prepared in Ca/Mg Free PBS) to T-225 flask and return flask to 37° C./CO2 incubator for 2-3 minutes. To dislodge the cell, gently bang the side of the flask with your hand. Triturate the cells completely and then transfer the cells to 25 mL complete media. Centrifuge at 1,500 rpm for 6 min followed by resuspension in complete growth media and determine cell concentration. For typical re-seeding, 4E6 cells/T-225 flask will attain >80% confluency in 4 days. Under ideal growth conditions and appropriate tissue culture practices, this cell line is stable for 40-45 passages.
FluxOR Kit Components (Invitrogen F10017)
• FluxOR™ Reagent (Component A) • FluxOR™ Assay Buffer (Component B)—10× Concentrate • PowerLoad™ Concentrate (Component C)—100× Concentrate • Probenecid (Component D)—Lyophilized sample is kept at −20° C. Water soluble, 100× after solubilization in 1 mL water. Store at 4° C. • FluxOR™ Chloride-free Buffer (Component E)—5× Concentrate • Potassium sulfate (K2SO4) Concentrate (Component F)—125 mM in water. Store at 4° C. • Thallium sulfate (Tl2SO4) Concentrate (Component G)—50 mM in water. Store at 4° C. • DMSO (dimethyl sulfoxide, Component H)—1 mL (100%) Reagent Preparation: FluxOR Working Solutions • 1000× FluxOR™ Reagent: Reconstitute a vial of component A in 100 μl DMSO; Mix well; Store 10 μl aliquots at −20° C. • 1× FluxOR™ Assay Buffer: Dilute Component B 10-fold with water; Adjust pH to 7.4 with Hepes/NaOH; Filter and store at 4° C. • Probenecid/Assay Buffer: 100 mL of 1× FluxOR™ Assay Buffer; 1 mL of reconstituted component D; Store at 4° C. • Loading Buffer (per microplate): 10 μl 1000× FluxOR™ Reagent; 100 μl component C; 10 mL Probenecid/Assay Buffer • Compound Buffer (per microplate): 20 mL Probenecid/Assay Buffer; 0.3 mM ouabain (10 mM ouabain in water can be stored in amber bottle/aluminum foil at room temperature); Test compound • 1× FluxOR™ Chloride-Free Buffer: Prepare 1× working solution in water. Can be stored at room temperature • Stimulant Buffer (prepared at 5× final concentration in 1× FluxOR™Chloride-Free Buffer): 7.5 mM Thallium sulfate and 0.75 mM Potassium sulfate (to give a final assay concentration of 3 mM Thallium/0.3 mM Potassium). Store at 4° C. when not in use. If kept sterile, this solution is good for months.
Assay Protocol—The ROMK channel functional thallium flux assay is performed in 384 wells, using the FLIPR-Tetra instrument. HEK-hKir1.1 cells are seeded in Poly-D-Lysine microplates and kept in a 37° C.-10% CO2 incubator overnight. On the day of the experiment, the growth media is replaced with the FluxOR™ reagent loading buffer and incubated, protected from light, at ambient temperature (23-25° C.) for 90 min. The loading buffer is replaced with assay buffer± test compound followed by 30 min incubation at ambient temperature, where the Thallium/Potassium stimulant is added to the microplate.
• 1. Seed HEK-hKir1.1 cells (50 μl at 20,000 cells/well) in 384-well PDL coated Microplates • 2. Allow cells to adhere overnight in humidified 37° C./10% CO2 incubator • 3. Completely remove cell growth media from microplate and replace with 25 μl loading buffer • 4. Incubate Microplate at room temperature, protected form light, for 90 min • 5. Remove loading buffer and replace with 25 μl 1× Assay Buffer±test compound. • 6. Incubate microplate at room temperature, protected from light, for 30 min • 7. At FLIPR-Tetra 384: Add stimulant (Thallium/Potassium) solution to microplate and monitor fluorescence. Excitation=400 nm, Emission=460 & 580 nm. Collect data for ˜10 min. […]

As for `COc1ccc(C(=O)NC2CCN(CC(O)c3ccc4c(c3C)COC4=O)CC2)cc1C#N` (stereo not drawn) [Example 10, 3-Cyano-N-(1-(2-hydroxy-2-(4-methyl-1-oxo-1,3-dihydroisobenzofuran-5-yl)ethyl)piperidin-4-yl)-4-methoxybenzamide], the IC50 was 60 nM.
Take `Cc1c(CCN2CCC(NC(=O)c3ccc(C#N)c(F)c3)CC2)ccc2c1COC2=O` [Example 11, 4-Cyano-3-fluoro-N-(1-(2-(4-methyl-1-oxo-1,3-dihydroisobenzofuran-5-yl)ethyl)piperidin-4-yl)benzamide]: 30 nM corresponded to half-maximal inhibition (IC50). This IC50 lies about 2-fold lower than the previous one.
With `Cc1c(C(O)CN2CCC(NC(=O)c3ccc4c(c3)COC4=O)CC2)ccc(F)c1C#N` (stereo not drawn) [Example 13, N-(1-(2-(3-Cyano-4-fluoro-2-methylphenyl)-2-hydroxyethyl)piperidin-4-yl)-1-oxo-1,3-dihydroisobenzofuran-5-carboxamide], half-maximal inhibition (IC50) required 350 nM. This IC50 is about 12-fold higher than that of the molecule before.
As for `COc1cc(C(=O)NC2CCN(CC(O)c3ccc(F)c(C#N)c3C)CC2)ccc1C#N` (stereo not drawn) [Example 14, 4-Cyano-N-(1-(2-(3-cyano-4-fluoro-2-methylphenyl)-2-hydroxyethyl)piperidin-4-yl)-3-methoxybenzamide], the figure is 70 nM.
In the case of `Cc1c(CCN2CCC(NC(=O)c3ccnc(-n4cnnn4)c3)CC2)ccc2c1COC2=O` [Example 15, N-(1-(2-(4-Methyl-1-oxo-1,3-dihydroisobenzofuran-5-yl)ethyl)piperidin-4-yl)-2-(1H-tetrazol-1-yl)isonicotinamide], the midpoint of inhibition, the IC50, lay at 450 nM.
Take `Cc1c(C(O)CN2CCC(NC(=O)c3ccc(C#N)c(F)c3)CC2)ccc2c1COC2=O` (stereo not drawn) [Example 16, 4-Cyano-3-fluoro-N-(1-(2-hydroxy-2-(4-methyl-1-oxo-1,3-dihydroisobenzofuran-5-yl)ethyl)piperidin-4-yl)benzamide]: 50 nM corresponded to half-maximal inhibition (IC50). Against the preceding molecule, the IC50 is about 9-fold lower.
As to `COc1cc(F)c(C#N)cc1C(=O)NC1CCN(CCc2ccc3c(c2C)COC3=O)CC1` [Example 17, 5-Cyano-4-fluoro-2-methoxy-N-(1-(2-(4-methyl-1-oxo-1,3-dihydroisobenzofuran-5-yl)ethyl)piperidin-4-yl)benzamide], the concentration for half-maximal inhibition (IC50) is 30 nM.
`Cc1cc(F)c(C(=O)NC2CCN(CCc3ccc4c(c3C)COC4=O)CC2)cc1C#N` [Example 18, 5-Cyano-2-fluoro-4-methyl-N-(1-(2-(4-methyl-1-oxo-1,3-dihydroisobenzofuran-5-yl)ethyl)piperidin-4-yl)benzamide]: inhibition was half-maximal at 950 nM (IC50).
`Cc1cc(C(=O)NC2CCN(CCc3ccc4c(c3C)COC4=O)CC2)ncc1C#N` [Example 19, 5-Cyano-4-methyl-N-(1-(2-(4-methyl-1-oxo-1,3-dihydroisobenzofuran-5-yl)ethyl)piperidin-4-yl)picolinamide]: the IC50 turned out to be 50 nM.
`COc1cc(F)c(C#N)cc1C(=O)NC1CCN(C[C@H](O)c2ccc3c(c2C)COC3=O)CC1` [Example 20, (R)-5-Cyano-4-fluoro-N-(1-(2-hydroxy-2-(4-methyl-1-oxo-1,3-dihydroisobenzofuran-5-yl)ethyl)piperidin-4-yl)-2-methoxybenzamide] yielded an IC50 of 70 nM.
In turn, `COc1cc(F)c(C#N)cc1C(=O)NC1CCN(C[C@@H](O)c2ccc3c(c2C)COC3=O)CC1` [Example 21, (S)-5-Cyano-4-fluoro-N-(1-(2-hydroxy-2-(4-methyl-1-oxo-1,3-dihydroisobenzofuran-5-yl)ethyl)piperidin-4-yl)-2-methoxybenzamide] displayed a half-maximal inhibitory concentration (IC50) of 150 nM.
In turn, `Cc1cc(C(=O)NC2CCN(C[C@H](O)c3ccc4c(c3C)COC4=O)CC2)ncc1C#N` [Example 22, (R)-5-cyano-N-(1-(2-hydroxy-2-(4-methyl-1-oxo-1,3-dihydroisobenzofuran-5-yl)ethyl)piperidin-4-yl)-4-methylpicolinamide] displayed an IC50 of 20 nM.
As for `Cc1cc(C(=O)NC2CCN(C[C@@H](O)c3ccc4c(c3C)COC4=O)CC2)ncc1C#N` [Example 23, (S)-5-cyano-N-(1-(2-hydroxy-2-(4-methyl-1-oxo-1,3-dihydroisobenzofuran-5-yl)ethyl)piperidin-4-yl)-4-methylpicolinamide], the figure is 720 nM; as for `Cc1c([C@@H](O)CN2CCC(NC(=O)c3ccc(C#N)nc3)CC2)ccc2c1COC2=O` [Example 24, (R)-6-Cyano-N-(1-(2-hydroxy-2-(4-methyl-1-oxo-1,3-dihydroisobenzofuran-5-yl)ethyl)piperidin-4-yl)nicotinamide], 150 nM.
As for `Cc1cc(C(=O)NC2CCN(C[C@H](O)c3ccc4c(c3C)COC4=O)CC2)ccc1C#N` [Example 25, (R)-4-Cyano-N-(1-(2-hydroxy-2-(4-methyl-1-oxo-1,3-dihydroisobenzofuran-5-yl)ethyl)piperidin-4-yl)-3-methylbenzamide], the figure is 30 nM.
`CCOc1cc(C#N)ccc1C(=O)NC1CCN(C[C@H](O)c2ccc3c(c2C)COC3=O)CC1` [Example 26, (R)-4-Cyano-2-ethoxy-N-(1-(2-hydroxy-2-(4-methyl-1-oxo-1,3-dihydroisobenzofuran-5-yl)ethyl)piperidin-4-yl)benzamide] had an IC50 of 70 nM.
Turning to `Cc1c([C@@H](O)CN2CCC(NC(=O)c3ccc(C#N)cc3)CC2)ccc2c1COC2=O` [Example 27, (R)-4-Cyano-N-(1-(2-hydroxy-2-(4-methyl-1-oxo-1,3-dihydroisobenzofuran-5-yl)ethyl)piperidin-4-yl)benzamide], the IC50 came to 30 nM.
Take `Cc1c([C@@H](O)CN2CCC(NC(=O)c3ccc(C#N)cn3)CC2)ccc2c1COC2=O` [Example 28, (R)-5-Cyano-N-(1-(2-hydroxy-2-(4-methyl-1-oxo-1,3-dihydroisobenzofuran-5-yl)ethyl)piperidin-4-yl)picolinamide]: the IC50 came to 30 nM.
`Cc1c(CCN2CCC(NC(=O)c3cccc(-n4cnnn4)c3)CC2)ccc2c1COC2=O` [Example 30, N-(1-(2-(4-Methyl-1-oxo-1,3-dihydroisobenzofuran-5-yl)ethyl)piperidin-4-yl)-3-(1H-tetrazol-1-yl)benzamide] had an IC50 of 120 nM. Against the preceding molecule, the IC50 is about 4-fold higher.
`Cc1c(CCN2CCC(NC(=O)c3ccc(-n4cccn4)cc3)CC2)ccc2c1COC2=O` [Example 31, N-(1-(2-(4-Methyl-1-oxo-1,3-dihydroisobenzofuran-5-yl)ethyl)piperidin-4-yl)-4-(1H-pyrazol-1-yl)benzamide] showed an IC50 of 100 nM.
Molecule `Cc1c(CCN2CCC(NC(=O)c3cc(C#N)cs3)CC2)ccc2c1COC2=O` [Example 32, 4-Cyano-N-(1-(2-(4-methyl-1-oxo-1,3-dihydroisobenzofuran-5-yl)ethyl)piperidin-4-yl)thiophene-2-carboxamide] yielded an IC50 of 480 nM.

As a reminder, the IC50 is the concentration needed to halve the response being measured. A low value points to greater potency.
